The results in this text go back to patent US10358427B2, “Modulators of indoleamine 2,3-dioxygenase” (GLAXOSMITHKLINE INTELLECTUAL PROPERTY DEVELOPMENT LIMITED, priority 2015, dated 2019).

Assay [1] has as its target T1, indoleamine 2, 3-dioxygenase (IDO1) (Homo sapiens, UniProt P14902). Put plainly: HeLa IDOi assay (kynurenine detection via mass spectrometry). Format: cell-based. Also noted: human epithelial HeLa cells (CCL-2; host or cells: HeLa cells stimulated with human IFN-γ. The note with it: human epithelial HeLa cells stimulated with IFN-γ; kynurenine by mass spectrometry; 2 days incubation. The procedure: (§1) Compounds of the present invention were tested via high-throughput cellular assays utilizing detection of kynurenine via mass spectrometry and cytotoxicity as end-points. For the mass spectrometry and cytotoxicity assays, human epithelial HeLa cells (CCL-2; ATCC®, Manassas, Va.) were stimulated with human interferon-γ (IFN-γ) (Sigma-Aldrich Corporation, St. Louis, Mo.) to induce the expression of indoleamine 2, 3-dioxygenase (IDO1). Compounds with IDO1 inhibitory properties decreased the amount of kynurenine produced by the cells via the tryptophan catabolic pathway. Cellular toxicity due to the effect of compound treatment was measured using CellTiter-Glo® reagent (CTG) (Promega Corporation, Madison, Wis.), which is based on luminescent detection of ATP, an indicator of metabolically active cells.
(§2) In preparation for the assays, test compounds were serially diluted 3-fold in DMSO from a typical top concentration of 5 mM and plated at 0.5 μL in 384-well, polystyrene, clear bottom, tissue culture treated plates with lids (Greiner Bio-One, Kremsmünster, Austria) to generate 11-point dose response curves. Low control wells (0% kynurenine or 100% cytotoxicity) contained either 0.5 μL of DMSO in the presence of unstimulated (−IFN-γ) HeLa cells for the mass spectrometry assay or 0.5 μL of DMSO in the absence of cells for the cytotoxicity assay, and high control wells (100% kynurenine or 0% cytotoxicity) contained 0.5 μL of DMSO in the presence of stimulated (+IFN-γ) HeLa cells for both the mass spectrometry and cytotoxicity assays.
Frozen stocks of HeLa cells were washed and recovered in DMEM high glucose medium with HEPES (Thermo Fisher Scientific, Inc., Waltham, Mass.) supplemented with 10% v/v certified fetal bovine serum (FBS) (Thermo Fisher Scientific, Inc., Waltham, Mass.), and 1× penicillin-streptomycin antibiotic solution (Thermo Fisher Scientific, Inc., Waltham, Mass.). The cells were diluted to 100,000 cells/mL in the supplemented DMEM medium. 50 μL of either the cell suspension, for the mass spectrometry assay, or medium alone, for the cytotoxicity assay, were added to the low control wells, on the previously prepared 384-well compound plates, resulting in 5,000 cells/well or 0 cells/well respectively. IFN-γ was added to the remaining cell suspension at a final concentration of 10 nM, and 50 μL of the stimulated cells were added to all remaining wells on the 384-well compound plates. The plates, with lids, were then placed in a 37° C., 5% CO2 humidified incubator for 2 days.
(§3) Following incubation, the 384-well plates were removed from the incubator and allowed to equilibrate to room temperature for 30 minutes. For the cytotoxicity assay, CellTiter-Glo® was prepared according to the manufacturer's instructions, and 10 μL were added to each plate well. After a twenty minute incubation at room temperature, luminescence was read on an EnVision® Multilabel Reader (PerkinElmer Inc., Waltham, Mass.). For the mass spectrometry assay, 10 μL of supernatant from each well of the compound-treated plates were added to 40 μL of acetonitrile, containing 10 μM of an internal standard for normalization, in 384-well, polypropylene, V-bottom plates (Greiner Bio-One, Kremsmünster, Austria) to extract the organic analytes. Following centrifugation at 2000 rpm for 10 minutes, 10 μL from each well of the acetonitrile extraction plates were added to 90 μL of sterile, distilled H2O in 384-well, polypropylene, V-bottom plates for analysis of kynurenine and the internal standard on the RapidFire 300 (Agilent Technologies, Santa Clara, Calif.) and 4000 QTRAP MS (SCIEX, Framingham, Mass.). MS data were integrated using Agilent Technologies' RapidFire Integrator software, and data were normalized for analysis as a ratio of kynurenine to the internal standard. […]

For assay [2], the target named is T1, indoleamine 2, 3-dioxygenase (IDO1). Description: PBMC IDOi assay (kynurenine detection via mass spectrometry). Format: cell-based. The note with it: human PBMC stimulated with IFN-γ and LPS; kynurenine by mass spectrometry; 2 days incubation. The procedure:
as §1, with “peripheral blood mononuclear” for “epithelial HeLa”, “(PBMC) (PB003F; AlICells®, Alameda, Calif.)” for “(CCL-2; ATCC®, Manassas, Va.)”, “Mo.) and lipopolysaccharide from Salmonella minnesota (LPS) (Invivogen, San Diego, Calif.)” for “Mo.)”
as §2, with “(−IFN-γ/−LPS) PBMCs” for “(−IFN-γ) HeLa cells”, “(+IFN-γ/+LPS) PBMCs” for “(+IFN-γ) HeLa cells”
Frozen stocks of PBMCs were washed and recovered in RPMI 1640 medium (Thermo Fisher Scientific, Inc., Waltham, Mass.) supplemented with 10% v/v heat-inactivated fetal bovine serum (FBS) (Thermo Fisher Scientific, Inc., Waltham, Mass.), and 1× penicillin-streptomycin antibiotic solution (Thermo Fisher Scientific, Inc., Waltham, Mass.). The cells were diluted to 1,000,000 cells/mL in the supplemented RPMI 1640 medium. 50 μL of either the cell suspension, for the mass spectrometry assay, or medium alone, for the cytotoxicity assay, were added to the low control wells, on the previously prepared 384-well compound plates, resulting in 50,000 cells/well or 0 cells/well respectively. IFN-γ and LPS were added to the remaining cell suspension at final concentrations of 100 ng/ml and 50 ng/ml respectively, and 50 μL of the stimulated cells were added to all remaining wells on the 384-well compound plates. The plates, with lids, were then placed in a 37° C., 5% CO2 humidified incubator for 2 days.
as §3, with “and 40” for “and 10”

A word on the EC50: it is the concentration at which the effect is half-maximal. A higher EC50 goes with weaker potency.

Where a name gives a salt, the structure may show the parent alone.

T1 sequence (P14902 whole entry): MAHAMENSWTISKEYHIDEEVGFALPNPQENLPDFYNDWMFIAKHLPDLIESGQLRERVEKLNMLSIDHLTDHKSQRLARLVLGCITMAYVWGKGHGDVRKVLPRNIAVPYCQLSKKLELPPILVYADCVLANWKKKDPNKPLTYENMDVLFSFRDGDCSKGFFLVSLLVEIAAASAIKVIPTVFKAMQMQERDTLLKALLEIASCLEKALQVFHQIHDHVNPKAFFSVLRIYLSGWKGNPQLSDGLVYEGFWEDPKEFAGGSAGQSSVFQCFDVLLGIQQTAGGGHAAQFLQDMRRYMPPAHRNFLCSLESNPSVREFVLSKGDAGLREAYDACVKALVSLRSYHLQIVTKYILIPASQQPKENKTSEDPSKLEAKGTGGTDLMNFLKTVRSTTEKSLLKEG

On to `CC(C)CN(c1ccc(C2CC2C(=O)O)cc1Nc1nc2ccccc2[nH]1)C1CCCCC1` (stereo not drawn) [Example 2, cis-2-(3-((1H-Benzo[d]imidazol-2-yl)amino)-4-(cyclohexyl(isobutyl)amino)phenyl)cyclopropanecarboxylic acid], for which, in assay [1], the concentration giving a half-maximal response (EC50) is 5.01 nM.
`CC(C)CN(c1ccc(-c2ccccc2-c2nnn[nH]2)cc1Nc1nc2ccccc2o1)C1CCCCC1` [Example 11, N^3-(Benzo[d]oxazol-2-yl)-N^4-cyclohexyl-N^4-isobutyl-2′-(1H-tetrazol-5-yl)-[1,1′-biphenyl]-3,4-diamine]: the EC50 in assay [2] was 15.8 nM; in assay [1], 25.1 nM.
On to `CC(C)CN(c1ccc(-c2ccccc2C(=O)O)cc1Nc1nnc(C2CC2)s1)C1CCCCC1` [Example 20, 4′-(Cyclohexyl(isobutyl)amino)-3′((5-cyclopropyl-1,3,4-thiadiazol-2-yl)amino)-[1,1′-biphenyl]-2-carboxylic acid], for which the EC50 is 0.794 nM in assay [2] and 2 nM in assay [1].
`C/C=C/Cc1cc(-c2ccccc2-c2nnn[nH]2)cc(Nc2nc(Cl)ns2)c1OCCC` [Example 15, (E)-N-(5-(But-2-en-1-yl)-4-propoxy-2′-(1H-tetrazol-5-yl)-[1,1′-biphenyl]-3-yl)-3-chloro-1,2,4-thiadiazol-5-amine, Trifluoroacetic acid Salt] gave a concentration giving a half-maximal response (EC50) in assay [1] of 126 nM.
`CC(C)CN(c1ccc(-c2ccccc2C(=O)O)cc1Nc1nc(Cl)ns1)C1CCCCC1` [Example 9, 3′-((3-Chloro-1,2,4-thiadiazol-5-yl)amino)-4′-(cyclohexyl(isobutyl)amino)-[1,1′-biphenyl]-2-carboxylic acid]: the EC50 in assay [2] is 2.51 nM; in assay [1] it was 10 nM.
The matching figures for `CCCC(CCC)Oc1ccc(-c2ccccc2-c2nnn[nH]2)cc1Nc1nc2ccccc2o1` [Example 16, N-(4-(Heptan-4-yloxy)-2′-(1H-tetrazol-5-yl)-[1,1′-biphenyl]-3-yl)benzo[d]oxazol-2-amine]: 63.1 nM and 100 nM.
`CC(C)CN(c1ccc(-c2ccccc2C(=O)O)cc1Nc1nc2ccccc2[nH]1)C1CCCCC1` [Example 8, 3′-((1H-Benzo[d]imidazol-2-yl)amino)-4′-(cyclohexyl(isobutyl)amino)-[1,1′-biphenyl]-2-carboxylic acid] gave a 50% effective concentration (EC50) in assay [1] of 7.94 nM.
For `C/C=C/Cc1cc(-c2ccccc2-c2nnn[nH]2)cc(Nc2nc3ccccc3o2)c1OCCC` [Example 13, (E)-N-(5-(But-2-en-1-yl)-4-propoxy-2′-(1H-tetrazol-5-yl)-[1,1′-biphenyl]-3-yl)benzo[d]oxazol-2-amine, Trifluoroacetic acid Salt], the values for the EC50 in assay [2] and in assay [1] were 7.94 nM and 3.98 nM, respectively.
For the compound `CC(C)CN(c1ccc([C@H]2C[C@H]2C(=O)O)cc1Nc1nc(-c2ccccc2)co1)C1CCCCC1` (relative stereo) [Example 5, cis-2-(4-(Cyclohexyl(isobutyl)amino)-3-((4-phenyloxazol-2-yl)amino)phenyl)cyclopropanecarboxylic acid], in assay [1], the EC50 was 398 nM.
`CC(C)CN(c1ccc(-c2ccccc2-c2nnn[nH]2)cc1Nc1nc(Cl)ns1)C1CCCCC1` [Example 10, N^3-(3-Chloro-1,2,4-thiadiazol-5-yl)-N^4-cyclohexyl-N^4-isobutyl-2′-(1H-tetrazol-5-yl)-[1,1′-biphenyl]-3,4-diamine] showed an EC50 in assay [1] of 12.6 nM.
For `Cc1cc(Nc2cc(-c3ccccc3-c3nn[nH]n3)ccc2N(CC(C)C)CC(C)C)no1` [Example 12, N^4,N^4-diisobutyl-N^3-(5-methylisoxazol-3-yl)-2′-(2H-tetrazol-5-yl)-[1,1′-biphenyl]-3,4-diamine], the concentration giving a half-maximal response (EC50) is 39.8 nM in assay [2] and 158 nM in assay [1].
`CC(C)CN(c1ccc(-c2ccccc2-c2nnn[nH]2)cc1Nc1nnc(C2CC2)s1)C1CCCCC1` [Example 21, N^4-Cyclohexyl-N^3-(5-cyclopropyl-1,3,4-thiadiazol-2-yl)-N^4-isobutyl-2′-(1H-tetrazol-5-yl)-[1,1′-biphenyl]-3,4-diamine]: the values for the EC50 in assay [2] and in assay [1] were 1.58 nM and 3.16 nM, respectively.
`CC(C)CN(c1ccc([C@H]2C[C@H]2C(=O)O)cc1Nc1nc2ccccc2s1)C1CCCCC1` (relative stereo) [Example 3, cis-2-(3-(Benzo[d]thiazol-2-ylamino)-4-(cyclohexyl(isobutyl)amino)phenyl)cyclopropanecarboxylic acid] had a concentration giving a half-maximal response (EC50) in assay [1] of 15.8 nM.
On the same count and under the same terms, with `CC(C)CN(c1ccc([C@H]2C[C@H]2C(=O)O)cc1Nc1nc2ccccc2o1)C1CCCCC1` (relative stereo) [Example 1, cis-2-(3-(Benzo[d]oxazol-2-ylamino)-4-(cyclohexyl(isobutyl)amino)phenyl)cyclopropanecarboxylic acid] the figure was 100 nM.
